According to patent US8030284B2, “Treatment of eye disorders characterized by an elevated intraocular pressure by siRNAs” (Sylentis S.A.U., priority 2004, dated 2011):

What was measured:
[1] = system: normotensive New Zealand rabbit; experiment: IOP reduction after topical application to the cornea; format: in vivo, New Zealand White rabbit; conditions: topical 40 ul to cornea, once daily for four days; control = contralateral eye with vehicle alone; mean of maximum reduction ± SEM
Description: The New Zealand rabbit is the gold standard in experimental platforms designed to study IOP. It is easy to handle and it has a big eye, similar in size to the human organ. In addition, present equipment to measure IOP is not suited to use in animals with small eyes such as mice or rats. Finally, rabbits have an IOP (around 23 mm Hg) that can be brought down to up to 40% its value using local commercial hypotensive medication. Thus, although it is possible to generate rabbit glaucoma models (for example, surgically blocking episclerotic veins or artificially occluding the trabecular meshwork), we have used normotensive rabbits since, in our hands, the pharmacological decrease in IOP can be easily and reproducibly measured.
Normotensive New Zealand White rabbits (males, 2-3 kg) were used. The animals were kept in individual cages with free access to food and water. They were submitted to artificial 12 hours light/darkness cycles, to avoid uncontrolled circadian oscillations of IOP Animal handling and treatment were carried out in accordance with the European Communities Council Directive (86/609/EEC) and the statement of the Association for Research in Vision and Ophthalmology on the Use of Animals in Ophthalmic and Vision Research.
The drugs were typically administered by instilling a small volume (typically 40 μL) on the corneal surface. Contralateral eyes were treated with the vehicle alone and could be used as controls in each experiment […] there is a sympathy phenomenon with the other eye. Multiple experiments in the same animal should be abolished.
IOP measurements were done using a contact tonometer (TONOPEN XL, Mentor, Norwell, Mass.). The TonoPen tonometer is very convenient due to its reliability and small size. Measurements with this instrument were performed delicately applying the tonometer's sensor to the corneal surface. […] All measurements fell within this interval: the mean baseline value of intraocular pressure was 17.0±0.39 mm Hg (n=100). […] In order to avoid distress to the animal, rabbits were topically anesthetized (oxibuprocaine/tetracaine, 0.4%/1%, in a saline solution (1/4 v:v). The solution was applied (10 μl) to the cornea before each measurement of intraocular pressure was made. siRNA or saline was applied topically to the cornea in volumes of 40 μl.
The standard protocol for the siRNA application in rabbit was as follows. Doses of siRNA in saline solution (0.9% w/v) to a final volume of 40 ul, were applied to one eye each day during four consecutive days. The opposite eye was taken as a control and 40 ul of sterile saline (0.9% w/v) were instilled on it, at the same time points. The IOP was measured before each application and at 2 h, 4 h and 6 h following the instillation, during 10 days. Maximum responses were observed between second and third day. To compare the effect of siRNA with other hypotensive compounds, Xalatan (latanoprost 0.005%) and Trustop (Dorzolamide 2%) were assayed and IOP measured in the same conditions.
Those siRNAs selected by the in vitro assays were applied to the animal model, following the protocol previously described. To avoid the effect of IOP fluctuations due to circadian cycles, all the applications were performed at the same time. To determine the siRNA effect, intraocular pressures (IOPs) were measured as previously mentioned.
The data are summarized in table II where values represent the mean of the maximum percentage of IOP reduction after siRNA treatment once normalized and their standard deviations. The decrease in IOP was statistically significant for all the treated targets. […] The siRNAs used in these experiments correspond to the human targets given in FIGS. 2A-2R as follows: • AC2: rabbit sequence homologous to human SEQ. ID. 73 • AC4: rabbit sequence identical to human SEQ. ID. 5 • AC12: rabbit sequence identical to human SEQ. ID. 522 • ADRB1: rabbit sequence identical to human SEQ. ID. 105 • ADRB2: rabbit sequence homologous to human SEQ. ID. […]

AC2 = experiment: siRNA interference in cell cultures, real time PCR of AC2 transcript; format: cell-based, rabbit; conditions: normalized to actin relative to cell control, mean ± SD
Procedure: To check the specificity of the siRNA interference different cell cultures that express the target genes were employed. The cells used for these experiments were: rabbit non-pigmented ciliary epithelium cells NPE, human ciliary epithelium cells OMDC, and human embryonic kidney cells HEK293. The cells are incubated with the corresponding siRNA duplexes, and analysis of the downregulation of expression of the target gene is carried out.
Several examples of techniques well known in the art are as follows: We can perform a single transfection of siRNA duplex using a cationic lipid, such as RNAiFect Transfection Reagent (Qiagen) and Lipofectamine 2000 Reagent (Invitrogen) and assay for silencing 24, 48 and 72 hours after transfection.
A typical transfection protocol can be performed as follows: For one well of a 6-well plate, we transfect using 100 nM as final concentration of siRNA. Following RNAiFect protocol, we seed, the day before transfection, 2-4×10^5 cells per well in 3 ml of an appropriate growth medium, containing DMEM, 10% serum, antibiotics and glutamine, and incubate cells under normal growth conditions (37° C. and 5% CO2). On the day of transfection, cells have to be at 30-50% confluence. We dilute 15 ul of 20 uM siRNA duplex (corresponding to 100 nM final concentration) in 85 ul of Buffer EC-R, to give a final volume of 100 ul, and mix by vortexing. For complex formation, we add 19 ul of RNAiFect Transfection Reagent to the diluted siRNA and mix by pipetting or vortexing. After incubating the samples for 10-15 minutes at room temperature to allow formation of transfection complexes, we add the complexes drop-wise onto the cells with 2.9 ml of fresh growth medium low in antibiotics. After swirling the plates to ensure uniform distribution of the transfection complexes, we incubate the cells under their normal growth conditions. The day after, the complexes are removed and fresh and complete growth medium is added. To monitor gene silencing, cells are collected at 24, 48 and 72 hours post-transfection. The Lipofectamine 2000 Reagent protocol is quite similar. The day before transfection, we seed 2-4×10^5 cells per well in 3 ml of an appropriate growth medium, containing DMEM, 10% serum, antibiotics and glutamine, and incubate cells under normal growth conditions (37° C. and 5% CO2). On the day of transfection, cells have to be at 30-50% confluence. We dilute 12.5 ul of 20 uM siRNA duplex (corresponding to 100 nM final concentration) in 250 ul of DMEM, to give a final volume of 262.5 ul, and mix. Also, 6 ul of Lipofectamine 2000 is diluted in 250 ul of DMEM and mixed. After a 5 minutes incubation at room temperature, the diluted oligomer and the diluted Lipofectamine are combined to allow complex formation during a 20 minutes incubation at room temperature. […]

Row | Compound | IOP reduction (% of the control) [1] | % of gene transcript level (AC2; 24 h siRNA treatment) [%] | % of gene transcript level (AC2; 48 h siRNA treatment) [%]
1 | CCN[C@H]1C[C@H](C)S(=O)(=O)c2sc(S(N)(=O)=O)cc21 [Dorzolamide, reference compound] | 16.41 ± 2.38 % of the control | – | –
2 | CC(C)OC(=O)CCC/C=C\C[C@@H]1[C@@H](CC[C@@H](O)CCc2ccccc2)[C@H](O)C[C@@H]1O [Latanoprost, latanoprost, reference compound] | 25.46 ± 5.24 % of the control | – | –
3 | AC2 siRNA2: siRNA against AC2: rabbit sequence identical to human SEQ. ID. 54 (CTTCCCTGAGGATCCTCAA; listed as DNA, chemistry not given here; listed as Homo sapiens) | – | 37.97 ± 9.78 | 61.45 ± 9.62
4 | AC2 siRNA3: siRNA against AC2: rabbit sequence identical to human SEQ. ID. 66 (CTTCACTTGGTTCACTGGA; listed as DNA, chemistry not given here; listed as Homo sapiens) | – | 35.30 ± 9.73 | 51.14 ± 16.49
5 | ADRB1: siRNA against ADRB1: rabbit sequence identical to human SEQ. ID. 105 (CGACCCCAAGTGCTGCGAC; listed as DNA, chemistry not given here; listed as Homo sapiens) | 28.04 ± 2.98 % of the control | – | –
6 | AGTR2: siRNA against AGTR2: rabbit sequence identical to human SEQ. ID. 774 (GCATCTTATATAGTTCCCC; listed as DNA, chemistry not given here; listed as Homo sapiens) | 11.22 ± 1.53 % of the control | – | –
7 | ATP1A1: siRNA against ATP1A1: rabbit sequence identical to human SEQ. ID. 1399 (CTGGAACTCTGACTCAGAA; listed as DNA, chemistry not given here; listed as Homo sapiens) | 18.13 ± 1.39 % of the control | – | –
8 | ATP1B2: siRNA against ATP1B2: rabbit sequence identical to human SEQ. ID. 1820 (GTTCCACGTGAACTACACA; listed as DNA, chemistry not given here; listed as Homo sapiens) | 16.32 ± 0.91 % of the control | – | –
